Measured values reported in patent US8785351B2, “Herbicidal compositions containing bentazon and ALS inhibitor and ACCase inhibitor” (Dow AgroSciences LLC, priority 2012, dated 2014).

Assays:
Test in all cases: Postemergence herbicidal activity of mixtures in the field (direct-seeded rice), visual weed control
Type in all cases: in vivo
[1] = system: Cyperus iria (CYPIR, rice flatsedge); conditions: grams ai/ha: penoxsulam 1, bentazon-Na 112.5, cyhalofop-butyl 9.4, each alone or all three mixed, rice field trials
Description: (§1) Evaluation of Postemergence Herbicidal Activity of Mixtures in the Field
(§2) Field trials were conducted in Vietnam and Taiwan in cultivated direct-seeded rice using standard herbicide small plot research methodology. Plots varied from 1×2 meter (m) to 4×5 m (width×length) with 3-4 replicates per treatment. The rice crop was grown using normal cultural practices for fertilization, seeding, watering, flooding and maintenance to ensure good growth of the crop and the weeds.
(§3) All treatments in the field trials were applied using a backpack air sprayer with flat fan nozzles calibrated to apply 320 to 450 L/ha spray volume at approximately 30 PSI. Commercially available products of penoxsulam (Clipper 25OD), bispyribac-sodium (Nominee 100SC), bentazon-sodium (Basagran 480SL), cyhalofop-butyl (Clincher 100EC), and fenoxaprop-P-ethyl (Whip S) were mixed in water at appropriate formulated product rates to achieve the desired rates based on a unit area of application (hectare) to achieve the desired rates as shown. Treatments were rated at 7 to 42 days after application (DAA) as compared to the untreated control plants. Visual weed control was scored on a scale of 0 to 100 percent where 0 corresponds to no injury and 100 corresponds to complete kill.
(§4) All treatment results, both for the single product and mixtures, are an average of 3 to 4 replicates and the tank mix interactions are significant at the […] level.
(§5) Colby's equation was used to determine the herbicidal effects expected from the mixtures (Colby, S. R. Calculation of the synergistic and antagonistic response of herbicide combinations. Weeds 1967, 15, 20-22.).
(§6) The following equation was used to calculate the expected activity of mixtures containing […]: Expected=A+B+C−(AB+AC+BC)/100+(ABC)/10,000
(§7) A=observed efficacy of active ingredient A at the same concentration as used in the mixture.
(§8) B=observed efficacy of active ingredient B at the same concentration as used in the mixture.
(§9) C=observed efficacy of active ingredient C at the same concentration as used in the mixture.
(§10) All comparisons are an average of 3 to 4 replicates and are significant at the […] level.

[2] = system: Echinochloa crus-galli (ECHCG, barnyardgrass); conditions: rice field trials
Description: as §1, §2, §3, §4, §5, §6, §7, §8, §9, §10

[3] = system: Fimbristylis miliacea (FIMMI, globe fringerush); conditions: grams ai/ha: penoxsulam 10, bentazon-Na 900, cyhalofop-butyl 75, each alone or all three mixed, rice field trials
Description: as §1, §2, §3, §4, §5, §6, §7, §8, §9, §10

[4] = system: Monochoria vaginalis (MOOVA, monochoria); conditions: rice field trials
Description: as §1, §2, §3, §4, §5, §6, §7, §8, §9, §10

[5] = system: Leptochloa chinensis (LEFCH, Chinese sprangletop); conditions: grams ai/ha: penoxsulam 1.6, bentazon-Na 112.5, cyhalofop-butyl 37.5, each alone or all three mixed, rice field trials
Description: as §1, §2, §3, §4, §5, §6, §7, §8, §9, §10

[6] = grams ai/ha: penoxsulam 4 alone (6 in the mix), bentazon-Na 450, fenoxaprop-P-ethyl 8, each alone or all three mixed
[7] = grams ai/ha: penoxsulam 10, bentazon-Na 900, cyhalofop-butyl 75, each alone or all three mixed
[8] = grams ai/ha: bispyribac-Na 4, bentazon-Na 225, cyhalofop-butyl 75, each alone or all three mixed
[9] = grams ai/ha: penoxsulam 5, bentazon-Na 450, cyhalofop-butyl 37.5, each alone or all three mixed

Structure (SMILES): CC(C)N1C(=O)c2ccccc2NS1(=O)=O [Bentazon (Na), 3-(1-methylethyl)-1H-2,1,3-benzothiadiazin-4(3H)-one 2,2-dioxide]
- % Visual Control CYPIR (42 DAA) Obs [1]: 63%
- % Visual Control ECHCG (7 DAA) Obs [2, 6]: 0%
- % Visual Control ECHCG (7 DAA) Obs [2, 7]: 0%
- % Visual Control ECHCG (14 DAA) Obs [2, 8]: 0%
- % Visual Control ECHCG (14 DAA) Obs [2, 7]: 0%
- % Visual Control ECHCG (28 DAA) Obs [2, 7]: 0%
- % Visual Control FIMMI (42 DAA) Obs [3]: 0%
- % Visual Control MOOVA (7 DAA) Obs [4, 6]: 17%
- % Visual Control MOOVA (7 DAA) Obs [4, 9]: 0%
- % Visual Control MOOVA (14 DAA) Obs [4, 9]: 0%
- % Visual Control LEFCH (7 DAA) Obs [5]: 0%

Structure (SMILES): COc1cc(OC)nc(Oc2cccc(Oc3nc(OC)cc(OC)n3)c2C(=O)[O-])n1.[Na+] [Bispyribac (Na), sodium 2,6-bis(4,6-dimethoxypyrimidin-2-yloxy)benzoate]
- % Visual Control ECHCG (14 DAA) Obs [2, 8]: 0%

Structure (SMILES): CCCCOC(=O)[C@@H](C)Oc1ccc(Oc2ccc(C#N)cc2F)cc1 [Cyhalofop (Butyl), (R)-butyl 2-[4-(4-cyano-2-fluorophenoxy)phenoxy]propanoate]
- % Visual Control CYPIR (42 DAA) Obs [1]: 0%
- % Visual Control ECHCG (7 DAA) Obs [2, 7]: 37%
- % Visual Control ECHCG (14 DAA) Obs [2, 8]: 40%
- % Visual Control ECHCG (14 DAA) Obs [2, 7]: 43%
- % Visual Control ECHCG (28 DAA) Obs [2, 7]: 40%
- % Visual Control FIMMI (42 DAA) Obs [3]: 60%
- % Visual Control MOOVA (7 DAA) Obs [4, 9]: 0%
- % Visual Control MOOVA (14 DAA) Obs [4, 9]: 0%
- % Visual Control LEFCH (7 DAA) Obs [5]: 83%

Structure (SMILES): CCOC(=O)[C@@H](C)Oc1ccc(Oc2nc3ccc(Cl)cc3o2)cc1 [Fenoxaprop-P (Ethyl), (R)-ethyl-2-[4-(6-chloro-1,3-benzoxazol-2-yloxy)phenoxy]propanoate]
- % Visual Control ECHCG (7 DAA) Obs [2, 6]: 0%
- % Visual Control MOOVA (7 DAA) Obs [4, 6]: 0%

Structure (SMILES): COc1cnc(OC)n2nc(NS(=O)(=O)c3c(OCC(F)F)cccc3C(F)(F)F)nc12 [Penoxsulam, 2-(2,2-difluoroethoxy)-N-(5,8-dimethoxy[1,2,4]triazolo[1,5-c]pyrimidin-2-yl)-6-(trifluoromethyl)benzenesulfonamide]
- % Visual Control CYPIR (42 DAA) Obs [1]: 75%
- % Visual Control ECHCG (7 DAA) Obs [2, 6]: 61%
- % Visual Control ECHCG (7 DAA) Obs [2, 7]: 58%
- % Visual Control ECHCG (14 DAA) Obs [2, 7]: 60%
- % Visual Control ECHCG (28 DAA) Obs [2, 7]: 60%
- % Visual Control FIMMI (42 DAA) Obs [3]: 78%
- % Visual Control MOOVA (7 DAA) Obs [4, 6]: 22%
- % Visual Control MOOVA (7 DAA) Obs [4, 9]: 77%
- % Visual Control MOOVA (14 DAA) Obs [4, 9]: 87%
- % Visual Control LEFCH (7 DAA) Obs [5]: 0%
